In PMC4592236, “Pathogen- and Host-Directed Antileishmanial Effects Mediated by Polyhexanide (PHMB)” (PLoS Neglected Tropical Diseases, 2015):
Counter-ions that a name gives are not always drawn. Like-named read-outs stand apart in the source and are kept apart here.

How the values were obtained:
[1] = tested on: intracellular L. major amastigotes; experiment: microbe, parasite or virus in culture; assay type: cell-based, Leishmania major; settings: for IC50 (μM) amastigotes: Table 2, without dynasore, two independent experiments; for IC50: intracellular amastigotes in BMDM, luciferase
Protocol: The assay is based on bioluminescence measurement of firefly luciferase, which catalyzes the formation of light from ATP and luciferin. The virulent luciferase-transgenic (Luc-tg) L. major strain containing a firefly luciferase reporter gene was maintained by continuous passage in female BALB/c mice and was grown in 96-well blood agar cultures at 27°C, 5% CO2, and 95% humidity. A luciferase-transgenic L. major strain was used to infect BMDM according to our recently established protocol. Briefly, BMDM numbers were adjusted to 2 × 10^5, cultured in 96-well plates and incubated for 4 h to allow adherence to the surface. The promastigote number was adjusted to 3 × 10^6 parasites per ml to achieve an infection rate of 1:15. Then, infection was made by discarding the supernatant of the cultured cells and replacing it with an equal volume of complete RPMI medium containing the promastigotes' suspension. After incubating the infected BMDM (37°C, 5% CO2) for 24 h to allow full differentiation of the promastigotes into amastigotes, the medium containing the extracellular parasites was removed and the wells were washed three times with the same RPMI medium. Five serial dilutions of each substance (1:5) in the same fresh RPMI medium were added to the infected BMDM in duplicate with the appropriate controls. After further 24 h of incubation at 37°C and 5% CO2, the infected BMDM were lysed with a luciferin-containing buffer (Britelite, PerkinElmer, Germany) and luminescence was measured with a luminescence plate reader, Victor X Light 2030 luminometer (PerkinElmer). The IC50 values of the compounds against intracellular amastigotes were calculated based on the intercept theorem, as previously described.

L. major promastigotes [2] = experiment: AlamarBlue assay against L. major promastigotes; assay type: cell-based, Leishmania major; settings: for IC50 (μM) promastigotes: Table 2, without dynasore
Protocol: Cytotoxicities of the different compounds or formulations against mammalian cell (BMDM or 293T epithelial cells) and L. major promastigotes were determined as previously described. Briefly, 4 × 10^4 mammalian cells or 10 × 10^6 virulent L. major promastigotes (MHOM/IL/81/FE/BNI strain) in the log phase of growth were added to each well of 96-well plates and cultured with five increasing concentrations of each compound at 37°C or 27°C for 24 h, respectively. Standard antileishmanial drugs including amphotericin B (A2942), pentamidine isothionate (P0547) and paromomycin sulfate (P9297) from Sigma-Aldrich (Deisenhofen, Germany) and miltefosine (1-hexadecylphosphorylcholine) (Cayman Chemical Company, Ann Arbor, MI, USA) were used as positive controls. The AlamarBlue dye (Trinova Biochem GmbH, Giessen, Germany) was added to each well at 10% concentration and incubated for a further 48 h. The optical density (OD) was then measured by using Multiskan Ascent ELISA reader at a wavelength 550 nm and 630 nm. The OD value or % dye reduction is proportional to viable cell/parasite number and was used for IC50 calculation based on the intercept theorem.

BMDM [3] = experiment: Cellular uptake by BMDM (flow cytometry); assay type: cell-based, BALB/c mice; settings: pre-incubation with inhibitor 30 min, then 4 h
Protocol: PI and YO-PRO-1 dyes (Life Technologies, Darmstadt, Germany) uptake by the promastigotes was measured by MACS Quant Analyzer (Miltenyi Biotec, Bergisch Gladbach, Germany), and used to indicate membrane integrity. […] L. major promastigotes were treated with 2 μM PHMB for indicated time points and then washed at 3,000 × g for 10 min. The samples were stained by incubating with PI or YO-PRO-1 dyes for 15 min in the dark at RT according to manufacturer’s instructions. The samples were then washed and a total of 100,000 events were immediately acquired by flow cytometry. Similarly, adherent BMDM cells were allowed to take-up fluorescent PHMB (PHMB-FITC conjugate) in the presence or absence of five different pharmacological inhibitors (cytochalasin D (C8273, used at 5 μg/ml), wortmannin (W1628, used at 12.85 μg/ml), chlorpromazine hydrochloride (C8138, used at 10 μg/ml), ikarugamycin (SML0188, used at 1 μM) and dynasore (D7693, used at 25.8 μg/ml), Sigma-Aldrich, Deisenhofen, Germany). PHMB (Polyhexamethylene biguanide; CAS# 27083-27-8; alternative chemical names: polyhexanide, polyamino propylbiguanide, Mw = 2780 g/mol) was provided by the laboratory of Dr. Liam Good and by Tecrea Ltd, London UK (www.tecrea.co.uk), at stock concentrations of 1 mg/ml and 200 mg/ml. […] The data were analyzed using FlowJo software (Tree Star Inc., CA, USA).

L. major promastigotes [4] = experiment: PHMB-FITC uptake into promastigotes (flow cytometry); assay type: cell-based, Leishmania major; settings: PHMB-FITC 0.35 μM
BMDM [5] = experiment: AlamarBlue cytotoxicity assay, BMDM; assay type: cell-based, BALB/c mice; settings: average of 3–6 independent experiments, read-out: IC50 BMDMs
BMDM [6] = experiment: Cytokine production by BMDM (ELISA); assay type: cell-based, BALB/c mice; settings: BMDM supernatants, 48 h
Protocol: BMDM were generated from female BALB/c mice as described above in cell culture. 1 × 10^6 BMDM were seeded in a final volume of 0.5 ml in 24-well plates, infected with L. major promastigotes at 15:1 parasite to BMDM ratio, washed and incubated at 37°C for 30 min in complete RPMI medium containing CpG ODN (15 μg/ml). PHMB, CpG ODN or PHMB/CpG ODN polyplexes were added to the pre-activated or control cells and further incubated for 48 h. The supernatants were collected and IL-6, IL-10, IL-4 or TNF-α (Biosciences, Wiesbaden, Germany) concentrations were measured by sandwich ELISA while IL-12p70 was measured by using the IL-12p70 ELISA Ready-SET-Go kit from eBioscience according to the suppliers' instructions.

[7] = concentration of PHMB within polyplexes
[8] = concentration of PHMB within polyplexes, listed as Dynasore (80 μM)
[9] = with dynasore (80 μM), concentration of PHMB within polyplexes
[10] = Leishmania major, AlamarBlue, average of 3–6 independent experiments
[11] = AlamarBlue, average of 3–6 independent experiments

Question: `O=C(N/N=C/c1ccc(O)c(O)c1)c1cc2ccccc2cc1O` [Dynasore, dynasore] was tested. Which “IC50 (μM) amastigotes” value [1, 7] did it give?
Answer: did not display cytotoxicity

Question: And the “IC50 (μM) amastigotes” value [1, 8]?
Answer: No activity

Question: And the “IC50 amastigotes + dynasore (μM)” value [1, 9]?
Answer: No activity

Question: And the “IC50 (μM) promastigotes” value (L. major promastigotes [2]; [7])?
Answer: did not display cytotoxicity

Question: And the “IC50 (μM) promastigotes” value (L. major promastigotes [2]; [8])?
Answer: No activity

Question: What about the “IC50 promastigotes + dynasore (μM)” value (L. major promastigotes [2]; [9]) of the same compound?
Answer: No activity

Question: And the “inhibition of PHMB-FITC uptake by BMDM” value (BMDM [3])?
Answer: 80%

Question: What about the “inhibition of PHMB-FITC uptake into promastigotes” value (L. major promastigotes [4]) of the same compound?
Answer: more than 98%

Question: Which results are given for `NC[C@@H]1O[C@H](O[C@H]2[C@@H](O)[C@H](O[C@@H]3[C@@H](O)[C@H](N)C[C@H](N)[C@H]3O[C@H]3O[C@H](CO)[C@@H](O)[C@H](O)[C@H]3N)O[C@@H]2CO)[C@H](N)[C@@H](O)[C@@H]1O` [Paromomycin, paromomycin sulfate]?
Answer: IC50 ([1]; Leishmania major): 1500 ± 112 µM; IC50 (BMDM [5]; Mus musculus, BMDM): > 900 µM; IC50 (L. major promastigotes [2]; [10]): > 500 µM

Question: With `N=C(N)c1ccc(OCCCCCOc2ccc(C(=N)N)cc2)cc1` [Pentamidine, pentamidine isothionate] as the compound, how does the IC50 ([1]; Leishmania major) read?
Answer: 6.38 ± 2.4 µM

Question: And the IC50 (BMDM [5]; Mus musculus, BMDM)?
Answer: 128 ± 24 µM

Question: What about the IC50 (L. major promastigotes [2]; [10]) of the same compound?
Answer: 16.2 ± 3.1 µM

Question: Which IC50 ([1]; Leishmania major) does the source give for `C[C@@H]1[C@H](O)[C@@H](C)/C=C/C=C/C=C/C=C/C=C/C=C/C=C/[C@H](O[C@@H]2O[C@H](C)[C@@H](O)[C@H](N)[C@@H]2O)C[C@@H]2O[C@](O)(C[C@@H](O)C[C@@H](O)[C@H](O)CC[C@@H](O)C[C@@H](O)CC(=O)O[C@H]1C)C[C@H](O)[C@H]2C(=O)O` [Amphotericin B, amphotericin B] here?
Answer: 0.099 ± 0.05 µM

Question: And the IC50 (BMDM [5]; Mus musculus, BMDM)?
Answer: > 21 µM

Question: What about the IC50 (L. major promastigotes [2]; [10]) of the same compound?
Answer: 0.42 ± 0.5 µM

Question: What does the source list for “CpG ODN: unmethylated cytosine-phosphate-guanine oligodeoxynucleotide 1668, sequence TCCATGACGTTCCTGATGCT (DNA, backbone not given here)”?
Answer: IC50 [1]: > 150 µM; IC50 (BMDM [5]): > 150 µM; IC50 (L. major promastigotes [2]; [11]): > 150 µM; IC50 promastigotes (L. major promastigotes [2]; [11]): did not show activity; cytokine production (IL-6, IL-10, IL-12) (BMDM [6]): production of all cytokines tested increased with increasing doses

Question: Which IC50 ([1]; Leishmania major) does the source give for `CCCCCCCCCCCCCCCCOP(=O)([O-])OCC[N+](C)(C)C` [Miltefosine, 1-hexadecylphosphorylcholine] here?
Answer: 54 ± 8.1 µM

Question: What about the IC50 (BMDM [5]; Mus musculus, BMDM) of the same compound?
Answer: 75.6 ± 10.9 µM

Question: And the IC50 (L. major promastigotes [2]; [10])?
Answer: 28.3 ± 5.2 µM
